Reference: US6723716B1, “7-acylamino-3-heteroarylthio-3-cephem carboxylic acid antibiotics and prodrugs thereof” (Essential Therapeutics, Inc., priority 1999, dated 2004)
≈ marks a conversion by molar mass, not a printed value.

Legend:
E. coli ATCC25992 = test: Broth microdilution MIC (NCCLS); format: cell-based; conditions: Escherichia coli
Description: (§1) Compounds were evaluated for antimicrobial activity against a panel of bacterial strains using a broth microdilution assay performed as recommended by the NCCLS (1). The minimum inhibitory concentration (MIC) was defined as the lowest concentration of drug which prevented the growth of the bacteria.
(§2) For this primary panel, the assay was performed in Mueller-Hinton Broth (MHB) with a final bacterial inoculum of 5×10^5 CFU/mL (from an early-log phase culture) and a final volume of 100 μL. Control drugs, including imipenem, vancomycin, Penicillin G, dicloxacillin (vs. MSSA ATCC29213 only), and new compounds were prepared at a concentration equivalent to 2-fold the desired final concentration. Dilution of compounds were prepared directly in the plates by serial 2-fold dilution using a multichannel pipette. Positive and negative growth control were included in each plate.
(§3) The bacterial inocula were prepared as follows. For each strain one isolated colony was used to inoculate a volume of 8 mL of Mueller-Hinton broth and these cultures were incubated overnight (20 h) at 35° C. in a shaking incubator. At the exception of Enterococcus strains, culture were then diluted 1:10 and allowed to grow for an additional one hour at 35° C. in a shaking incubator. The inocula were prepared by diluting the early log-phase (1 h) cultures 1:1000 with fresh Mueller-Hinton broth. E. faecium and E. faecalis were prepared by diluting overnight cultures 1:333 and 1:666, respectively, with fresh Mueller-Hinton broth. A volume of 50 μL of the inocula was added to each well. […] The exact inocula were determined by applying 10 μL of 10-fold serial dilution of the bacterial suspensions on TSA. After overnight incubation at 35° C., colony forming units were manually counted.
(§4) Microtiter plates were incubated during 24 h at 35° C. and were read using a microtiterplate reader (Molecular Devices) at 650 nm as well as by visual observation using a microtiterplate reading mirror.

E. faecalis ATCC 29212 = test: Broth microdilution MIC (NCCLS); format: cell-based; conditions: Enterococcus faecalis, ATCC29212
Description: as §1, §2, §3, §4

E. faecalis VanB (Van^R) = test: Broth microdilution MIC (NCCLS); format: cell-based; conditions: Enterococcus faecalis
Description: as §1, §2, §3, §4

E. faecium A491 (Amp^R) = test: Broth microdilution MIC (NCCLS); format: cell-based; conditions: Enterococcus faecium
Description: as §1, §2, §3, §4

E. faecium ATCC 35667 = test: Broth microdilution MIC (NCCLS); format: cell-based; conditions: Enterococcus faecium, ATCC35667
Description: as §1, §2, §3, §4

E. faecium VanA (Van^R) = test: Broth microdilution MIC (NCCLS); format: cell-based; conditions: Enterococcus faecium
Description: as §1, §2, §3, §4

P. aeruginosa ATCC 27853 = test: Broth microdilution MIC (NCCLS); format: cell-based; conditions: Pseudomonas aeruginosa, ATCC27853
Description: as §1, §2, §3, §4

[1] = system: S. aureus 76 (Meth^R)(lac^+); test: Broth microdilution MIC (NCCLS); format: cell-based; conditions: Staphylococcus aureus
Description: as §1, §2, §3, §4

[2] = system: S. aureus ATCC 13709 (Meth^S); test: Broth microdilution MIC (NCCLS); format: cell-based; conditions: Staphylococcus aureus, ATCC13709, S. aureus ATCC 13709 (Meth^S); read-out: MIC
Description: as §1, §2, §3, §4

S. aureus ATCC 29213 = test: Broth microdilution MIC (NCCLS); format: cell-based; conditions: Staphylococcus aureus, ATCC29213; S. aureus ATCC 29213; Mueller-Hinton broth, 24 h at 35° C.; read-out: MIC
Description: as §1, §2, §3, §4

[3] = system: S. aureus ATCC 33593 (Meth^R); test: Broth microdilution MIC (NCCLS); format: cell-based; conditions: Staphylococcus aureus, ATCC33593
Description: as §1, §2, §3, §4

[4] = system: S. aureus Col (Meth^R)(lac^−); test: Broth microdilution MIC (NCCLS); format: cell-based; conditions: Staphylococcus aureus
Description: as §1, §2, §3, §4

[5] = system: S. aureus PC1 (Meth^S)(lac^+); test: Broth microdilution MIC (NCCLS); format: cell-based; conditions: Staphylococcus aureus
Description: as §1, §2, §3, §4

[6] = system: S. aureus Spain #356 (Meth^R); test: Broth microdilution MIC (NCCLS); format: cell-based; conditions: Staphylococcus aureus, 24 h
Description: as §1, §2, §3, §4

[7] = system: S. haemolyticus 05 (Meth^R); test: Broth microdilution MIC (NCCLS); format: cell-based; conditions: Staphylococcus haemolyticus
Description: as §1, §2, §3, §4

S. aureus ATCC29213 = test: Human serum binding effect: MIC with and without human serum; format: cell-based, Staphylococcus aureus; conditions: 1:1 human serum:MHB
Description: The approximate measurement of the degree of binding of the compound to human serum proteins can be achieved by determination of the effect of the addition of human serum to the medium in which the MIC values against a selected bacterial strain is determined. The ratio of the MIC value obtained in presence of added human serum to the MIC value determined without serum addition was used as a measure of serum binding and the results of such determination are presented below in Table 2.
In addition to the standard MIC determination described above, the staphylococcal strain ATCC29213 is also tested in a ratio 1:1, human serum:MHB to obtain a preliminary estimate of the bioactivity of test compounds in serum: The assay was performed in Human Serum and Mueller-Hinton Broth (HSMHB) with a final bacterial inoculum of 1×10^6 CFU/mL (from an early-log phase culture) and a final volume of 100 μL. Control drugs, including imipenem, vancomycin, dicloxacillin, and new compounds were prepared in double-concentrated Mueller-Hinton broth at a concentration equivalent to 4-fold the desired final concentration. Dilution of compounds were prepared directly in the plates by serial 2-fold dilution in double-concentrated Mueller-Hinton using a multichannel pipette. Positive and negative growth controls were included in each plate. […] The inoculum was prepared by diluting the early log-phase (1 h) culture 1:100 with fresh double-concentrated Mueller-Hinton broth. A volume of 25 μL of the inoculum was added to each well. […] The exact inoculum was determined by applying 10 μl of 10-fold serial dilution of the bacterial suspension on TSA. After overnight incubation at 35° C., colony forming units were manually counted.

COc1nc(CSCCN)c(SC2=C(C(=O)O)N3C(=O)[C@@H](NC(=O)/C(=N\O)c4cccc(N)n4)[C@H]3SC2)s1 [Cmpd 5, (7R)-7-[(Z)-2-(2-aminopyrid-6-yl)-2-(hydroxyimino)acetamido]-3-[4-(2-aminoethylthiomethyl)-2-methoxy-1,3-thiazol-5-ylthio]-3-cephem-4-carboxylic acid]
MIC (E. coli ATCC25992): 32 µg/mL (≈ 53.5 µM)
MIC (E. faecalis ATCC 29212): 0.5 µg/mL (≈ 0.837 µM)
MIC (E. faecalis VanB (Van^R)): 1 µg/mL (≈ 1.67 µM)
MIC (E. faecium A491 (Amp^R)): > 32 µg/mL
MIC (E. faecium ATCC 35667): 4 µg/mL (≈ 6.69 µM)
MIC (E. faecium VanA (Van^R)): 4 µg/mL (≈ 6.69 µM)
MIC (P. aeruginosa ATCC 27853): > 32 µg/mL
MIC [1]: 4 µg/mL (≈ 6.69 µM)
MIC [2]: 0.13 µg/mL (≈ 0.217 µM)
MIC (S. aureus ATCC 29213): 0.25 µg/mL (≈ 0.418 µM)
MIC [3]: 4 µg/mL (≈ 6.69 µM)
MIC [4]: 4 µg/mL (≈ 6.69 µM)
MIC [5]: 0.25 µg/mL (≈ 0.418 µM)
MIC [6]: 4 µg/mL (≈ 6.69 µM)
MIC [7]: 8 µg/mL (≈ 13.4 µM)
Human serum binding effect (ratio of MIC value determined with and without human serum added) (S. aureus ATCC29213): 4

NCCSc1cncc(SC2=C(C(=O)O)N3C(=O)C(NC(=O)/C(=N\O)c4cccc(N)n4)C3SC2)n1 (stereo not shown) [Cmpd 6]
MIC (E. coli ATCC25992): 16 µg/mL (≈ 29.2 µM)
MIC (E. faecalis ATCC 29212): 2 µg/mL (≈ 3.65 µM)
MIC (E. faecalis VanB (Van^R)): 4 µg/mL (≈ 7.29 µM)
MIC (E. faecium A491 (Amp^R)): > 32 µg/mL
MIC (E. faecium ATCC 35667): 8 µg/mL (≈ 14.6 µM)
MIC (E. faecium VanA (Van^R)): 8 µg/mL (≈ 14.6 µM)
MIC (P. aeruginosa ATCC 27853): > 32 µg/mL
MIC [1]: 16 µg/mL (≈ 29.2 µM)
MIC [2]: 0.25 µg/mL (≈ 0.456 µM)
MIC (S. aureus ATCC 29213): 0.5 µg/mL (≈ 0.911 µM)
MIC [3]: 8 µg/mL (≈ 14.6 µM)
MIC [4]: 16 µg/mL (≈ 29.2 µM)
MIC [5]: 0.5 µg/mL (≈ 0.911 µM)
MIC [6]: 16 µg/mL (≈ 29.2 µM)
MIC [7]: 32 µg/mL (≈ 58.3 µM)
Human serum binding effect (ratio of MIC value determined with and without human serum added) (S. aureus ATCC29213): 128

NCCSc1nccnc1SC1=C(C(=O)O)N2C(=O)C(NC(=O)/C(=N\O)c3cccc(N)n3)C2SC1 (stereo not shown) [Cmpd 7]
MIC (E. coli ATCC25992): 4 µg/mL (≈ 7.29 µM)
MIC (E. faecalis ATCC 29212): 2 µg/mL (≈ 3.65 µM)
MIC (E. faecalis VanB (Van^R)): 4 µg/mL (≈ 7.29 µM)
MIC (E. faecium A491 (Amp^R)): > 32 µg/mL
MIC (E. faecium ATCC 35667): 8 µg/mL (≈ 14.6 µM)
MIC (E. faecium VanA (Van^R)): 8 µg/mL (≈ 14.6 µM)
MIC (P. aeruginosa ATCC 27853): > 32 µg/mL
MIC [1]: 2 µg/mL (≈ 3.65 µM)
MIC [2]: 0.25 µg/mL (≈ 0.456 µM)
MIC (S. aureus ATCC 29213): 0.25 µg/mL (≈ 0.456 µM)
MIC [3]: 2 µg/mL (≈ 3.65 µM)
MIC [4]: 2 µg/mL (≈ 3.65 µM)
MIC [5]: 0.25 µg/mL (≈ 0.456 µM)
MIC [6]: 2 µg/mL (≈ 3.65 µM)
MIC [7]: 2 µg/mL (≈ 3.65 µM)

NCCSc1nccc(SC2=C(C(=O)O)N3C(=O)[C@@H](NC(=O)/C(=N\O)c4cccc(N)n4)[C@H]3SC2)n1 [Cmpd 8, (7R)-7-[(Z)-2-(2-aminopyrid-6-yl)-2-(hydroxyimino)acetamido]-3-[2-(2-aminoethylthio)-pyrimidin-4-ylthio]-3-cephem-4-carboxylic acid]
MIC (E. coli ATCC25992): 16 µg/mL (≈ 29.2 µM)
MIC (E. faecalis ATCC 29212): 8 µg/mL (≈ 14.6 µM)
MIC (E. faecalis VanB (Van^R)): 16 µg/mL (≈ 29.2 µM)
MIC (E. faecium A491 (Amp^R)): > 32 µg/mL
MIC (E. faecium ATCC 35667): 16 µg/mL (≈ 29.2 µM)
MIC (E. faecium VanA (Van^R)): 32 µg/mL (≈ 58.3 µM)
MIC (P. aeruginosa ATCC 27853): > 32 µg/mL
MIC [1]: 16 µg/mL (≈ 29.2 µM)
MIC [2]: 0.5 µg/mL (≈ 0.911 µM)
MIC (S. aureus ATCC 29213): 1 µg/mL (≈ 1.82 µM)
MIC [3]: 8 µg/mL (≈ 14.6 µM)
MIC [4]: 16 µg/mL (≈ 29.2 µM)
MIC [5]: 1 µg/mL (≈ 1.82 µM)
MIC [6]: 16 µg/mL (≈ 29.2 µM)
MIC [7]: 32 µg/mL (≈ 58.3 µM)
Human serum binding effect (ratio of MIC value determined with and without human serum added) (S. aureus ATCC29213): 128

N=C(N)NCCSCc1nc(N)sc1SC1=C(C(=O)O)N2C(=O)[C@@H](NC(=O)/C(=N\O)c3nc(N)sc3Cl)[C@H]2SC1 [Cmpd 26, (7R)-7-[(Z)-2-(2-amino-5-chlorothiazol-4-yl)-2-(hydroxyimino)acetamido]-3-[4-(2-guanidinoethylthiomethyl)-2-amino-1,3-thiazol-5-ylthio]-3-cephem-4-carboxylic acid]
MIC (E. coli ATCC25992): 4 µg/mL (≈ 6.01 µM)
MIC (E. faecalis ATCC 29212): 0.06 µg/mL (≈ 0.0902 µM)
MIC (E. faecalis VanB (Van^R)): 0.06 µg/mL (≈ 0.0902 µM)
MIC (E. faecium A491 (Amp^R)): 16 µg/mL (≈ 24.1 µM)
MIC (E. faecium ATCC 35667): 0.5 µg/mL (≈ 0.752 µM)
MIC (E. faecium VanA (Van^R)): 1 µg/mL (≈ 1.5 µM)
MIC (P. aeruginosa ATCC 27853): 4 µg/mL (≈ 6.01 µM)
MIC [1]: 0.5 µg/mL (≈ 0.752 µM)
MIC [2]: 0.06 µg/mL (≈ 0.0902 µM)
MIC (S. aureus ATCC 29213): 0.06 µg/mL (≈ 0.0902 µM)
MIC [3]: 0.5 µg/mL (≈ 0.752 µM)
MIC [4]: 0.25 µg/mL (≈ 0.376 µM)
MIC [5]: 0.06 µg/mL (≈ 0.0902 µM)
MIC [6]: 0.5 µg/mL (≈ 0.752 µM)
MIC [7]: 0.5 µg/mL (≈ 0.752 µM)
Human serum binding effect (ratio of MIC value determined with and without human serum added) (S. aureus ATCC29213): 2
